From patent publication US20180065917A1, “IMMUNE CHECKPOINT INHIBITORS, COMPOSITIONS AND METHODS THEREOF” (Polaris Pharmaceuticals, Inc., priority 2016, published 2018)
Counter-ions that a name gives are not always drawn.

Tests used:
[1] = molecular target: T1, PD-L1/PD-1 complex formation (Homo sapiens, UniProt Q9NZQ7); assay: PD-L1/PD-1 Interaction Assay (ELISA platform); type: binding; settings: human PD-1-Fc coated plates, PD-L1-Fc-biotin 0.1 μg/ml, compounds pre-incubated 2 hours
T1 construct: purchased BPS Bioscience
T1 sequence (Q9NZQ7 19-239 limits assumed, one chain of several): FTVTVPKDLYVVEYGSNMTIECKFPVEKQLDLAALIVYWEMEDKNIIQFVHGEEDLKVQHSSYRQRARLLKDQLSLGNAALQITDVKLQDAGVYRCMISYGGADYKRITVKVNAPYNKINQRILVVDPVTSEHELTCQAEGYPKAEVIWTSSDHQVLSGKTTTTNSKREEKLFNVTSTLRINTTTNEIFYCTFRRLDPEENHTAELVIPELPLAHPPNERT
Procedure: The ability of compounds to block PD-L1/PD-1 complex formation was evaluated using biochemical interaction assay based on the ELISA platform.
EIA/RIA high binding 96-well plates (Costar) were coated with human PD-1-Fc protein diluted in PBS to 0.5 μg/ml overnight at 4° C. The PD-1-Fc coated plates were washed in PBST and blocked in blocking buffer (2% BSA in PBST). Serially diluted compounds were pre-incubated with PD-L1-Fc-biotin (0.1 μg/ml final) for 2 hours on a shaker at room temperature. The PD-1-Fc coated plates were washed with PBST and solutions containing PD-L1 and compounds were added to the plates. The PD-1-Fc coated plates were incubated with PD-L1 and compound solution for 2 hours on a shaker at room temperature. After the incubation unbound PD-L1 was washed away with PBST and plates were incubated with the blocking buffer for 10 minutes. The bound PD-L1-Fc-biotin was detected with streptavidin-HRP and TMB substrate. The plates were read at OD450 nm in a plate reader (i3 from Molecular Devices) and percentages of inhibition of PD-L1/PD-1 complex formation were calculated.
PD-1-Fc protein was made at Polaris and PD-L1-Fc was purchased from BPS Bioscience.

Structure (SMILES)	melting point	IC50 [1] [nM]
Cc1c(COc2ccc(CN3CCCC[C@H]3C(=O)O)cc2C(F)F)cccc1-c1cccc(COc2ccc(CN3CCCC[C@H]3C(=O)O)cc2C(F)F)c1C (as salt: trifluoroacetic acid salt) [Example 29, (2S,2′S)-1,1′-(((((2,2′-Dimethyl-[1,1′-biphenyl]-3,3′-diyl)bis(methylene))bis(oxy))bis(3-(difluoromethyl)-4,1-phenylene))bis(methylene))bis(piperidine-2-carboxylic acid) di-trifluoroacetic acid salt]	142 to 146 °C	
Cc1c(COc2ccc(CNC(C)(CO)CO)cc2Br)cccc1-c1cccc(COc2ccc(CNC(C)(CO)CO)cc2Br)c1C (as salt: trifluoroacetic acid salt) [Example 33, 2,2′-((((((2,2′-Dimethyl-[1,1′-biphenyl]-3,3′-diyl)bis(methylene))bis(oxy))bis(3-bromo-4,1-phenylene))bis(methylene))bis(azanediyl))bis(2-methylpropane-1,3-diol) di-trifluoroacetic acid salt]	134 to 138 °C	
Cc1c(COc2ccc(CN3CCCC[C@H]3C(=O)O)cc2C(F)(F)F)cccc1-c1cccc(COc2ccc(CN3CCCC[C@H]3C(=O)O)cc2C(F)(F)F)c1C [Example 13, (2S,2′S)-1,1′-(((((2,2′-Dimethyl-[1,1′-biphenyl]-3,3′-diyl)bis(methylene))bis(oxy))bis(3-(trifluoromethyl)-4,1-phenylene))bis(methylene))bis(piperidine-2-carboxylic acid)]	287 to 291 °C	0.1 to 10
Cc1c(COc2ccc(CNCCO)cc2Br)cccc1-c1cccc(COc2ccc(CNCCO)cc2Br)c1C (as salt: trifluoroacetic acid salt) [Example 5, 2,2′-((((((2,2′-Dimethyl-[1,1′-biphenyl]-3,3′-diyl)bis(methylene))bis(oxy))bis(3-bromo-4,1-phenylene))bis(methylene))bis(azanediyl))bis(ethan-1-ol) di-trifluoroacetic acid salt]	136 to 140 °C	
C#Cc1cc(CN2CCCC[C@H]2C(=O)O)ccc1OCc1cccc(-c2cccc(COc3ccc(CN4CCCC[C@H]4C(=O)O)cc3C#C)c2C)c1C (as salt: trifluoroacetic acid salt) [Example 26, (2S,2′S)-1,1′-(((((2,2′-Dimethyl-[1,1′-biphenyl]-3,3′-diyl)bis(methylene))bis(oxy))bis(3-ethynyl-4,1-phenylene))bis(methylene))bis(piperidine-2-carboxylic acid) di-trifluoroacetic acid salt]	175 °C (dec.)	
Cc1c(COc2ccc(CN(CC(=O)O)CC(=O)O)cc2Br)cccc1-c1cccc(COc2ccc(CN(CC(=O)O)CC(=O)O)cc2Br)c1C (as salt: trifluoroacetic acid salt) [Example 30, 2,2′,2″,2′″-((((((2,2′-Dimethyl-[1,1′-biphenyl]-3,3′-diyl)bis(methylene))bis(oxy))bis(3-bromo-4,1-phenylene))bis(methylene))bis(azanetriyl))tetraacetic acid di-trifluoroacetic acid salt]	223 to 227 °C	
Cc1c(COc2ccc(CN3C[C@@H](O)C[C@H]3C(=O)O)cc2Br)cccc1-c1cccc(COc2ccc(CN3C[C@@H](O)C[C@H]3C(=O)O)cc2Br)c1C [Example 7, (2S,2'S,4S,4′S)-1,1′-(((((2,2′-Dimethyl-[1,1′-biphenyl]-3,3′-diyl)bis(methylene))bis(oxy))bis(3-bromo-4,1-phenylene))bis(methylene))bis(4-hydroxypyrrolidine-2-carboxylic acid)]	260 to 264 °C	0.1 to 10
Cc1c(COc2ccc(CNC(CO)CO)cc2Br)cccc1-c1cccc(COc2ccc(CNC(CO)CO)cc2Br)c1C (as salt: trifluoroacetic acid salt) [Example 32, 2,2′-((((((2,2′-Dimethyl-[1,1′-biphenyl]-3,3′-diyl)bis(methylene))bis(oxy))bis(3-bromo-4,1-phenylene))bis(methylene))bis(azanediyl))bis(propane-1,3-diol) di-trifluoroacetic acid salt]	148 to 152 °C	
Cc1c(COc2ccc(CN3CCCC[C@H]3C(=O)O)cc2O)cccc1-c1cccc(COc2ccc(CN3CCCC[C@H]3C(=O)O)cc2O)c1C [Example 21, (2S,2′S)-1,1′-(((((2,2′-Dimethyl-[1,1′-biphenyl]-3,3′-diyl)bis(methylene))bis(oxy))bis(3-hydroxy-4,1-phenylene))bis(methylene))bis(piperidine-2-carboxylic acid)]	143 to 147 °C	1010 to 30000
Cc1c(COc2ccc(CN[C@@H](C(=O)O)[C@H](C)O)cc2Br)cccc1-c1cccc(COc2ccc(CN[C@@H](C(=O)O)[C@H](C)O)cc2Br)c1C (as salt: trifluoroacetic acid salt) [Example 18, (2R,2′R,3S,3′S)-2,2′-((((((2,2′-Dimethyl-[1,1′-biphenyl]-3,3′-diyl)bis(methylene))bis(oxy))bis(3-bromo-4,1-phenylene))bis(methylene))bis(azanediyl))bis(3-hydroxybutanoic acid) di-trifluoroacetic acid salt]	227 to 231 °C	
Cc1c(COc2ccc(CN[C@H](CO)C(=O)O)cc2Br)cccc1-c1cccc(COc2ccc(CN[C@H](CO)C(=O)O)cc2Br)c1C (as salt: trifluoroacetic acid salt) [Example 17, (2R,2′R)-2,2′-((((((2,2′-Dimethyl-[1,1′-biphenyl]-3,3′-diyl)bis(methylene))bis(oxy))bis(3-bromo-4,1-phenylene))bis(methylene))bis(azanediyl))bis(3-hydroxypropanoic acid) di-trifluoroacetic acid salt]	156 to 160 °C	
CSc1cc(CN2CCCC[C@H]2C(=O)O)ccc1OCc1cccc(-c2cccc(COc3ccc(CN4CCCC[C@H]4C(=O)O)cc3SC)c2C)c1C (as salt: trifluoroacetic acid salt) [Example 28, (2S,2′S)-1,1′-(((((2,2′-Dimethyl-[1,1′-biphenyl]-3,3′-diyl)bis(methylene))bis(oxy))bis(3-(methylthio)-4,1-phenylene))bis(methylene))bis(piperidine-2-carboxylic acid) di-trifluoroacetic acid salt]	134 to 138 °C	
Cc1c(COc2ccc(CN3CCCC[C@H]3C(=O)O)cc2C#N)cccc1-c1cccc(COc2ccc(CN3CCCC[C@H]3C(=O)O)cc2C#N)c1C (as salt: trifluoroacetic acid salt) [Example 34, (2S,2′S)-1,1′-(((((2,2′-dimethyl-[1,1′-biphenyl]-3,3′-diyl)bis(methylene))bis(oxy))bis(3-cyano-4,1-phenylene))bis(methylene))bis(piperidine-2-carboxylic acid) di-trifluoroacetic acid salt]	196 to 200 °C	
CCc1cc(CN2CCCC[C@H]2C(=O)O)ccc1OCc1cccc(-c2cccc(COc3ccc(CN4CCCC[C@H]4C(=O)O)cc3CC)c2C)c1C (as salt: trifluoroacetic acid salt) [Example 27, (2S,2′S)-1,1′-(((((2,2′-Dimethyl-[1,1′-biphenyl]-3,3′-diyl)bis(methylene))bis(oxy))bis(3-ethyl-4,1-phenylene))bis(methylene))bis(piperidine-2-carboxylic acid) di-trifluoroacetic acid salt]	131 to 135 °C	
Cc1c(COc2ccc(CNC(C)(C)C(=O)O)cc2Br)cccc1-c1cccc(COc2ccc(CNC(C)(C)C(=O)O)cc2Br)c1C (as salt: trifluoroacetic acid salt) [Example 14, 2,2′-((((((2,2′-Dimethyl-[1,1′-biphenyl]-3,3′-diyl)bis(methylene))bis(oxy))bis(3-bromo-4,1-phenylene))bis(methylene))bis(azanediyl))bis(2-methylpropanoic acid) di-trifluoroacetic acid salt]	230 to 234 °C	
Cc1c(COc2ccc(CN[C@H](C)C(=O)O)cc2Br)cccc1-c1cccc(COc2ccc(CN[C@H](C)C(=O)O)cc2Br)c1C (as salt: trifluoroacetic acid salt) [Example 16, (2R,2′R)-2,2′-((((((2,2′-Dimethyl-[1,1′-biphenyl]-3,3′-diyl)bis(methylene))bis(oxy))bis(3-bromo-4,1-phenylene))bis(methylene))bis(azanediyl))dipropionic acid di-trifluoroacetic acid salt]	186 to 190 °C	
Cc1c(COc2ccc(CN(CCO)CCO)cc2Br)cccc1-c1cccc(COc2ccc(CN(CCO)CCO)cc2Br)c1C (as salt: trifluoroacetic acid salt) [Example 31, 2,2′,2″,2′″-((((((2,2′-Dimethyl-[1,1′-biphenyl]-3,3′-diyl)bis(methylene))bis(oxy))bis(3-bromo-4,1-phenylene))bis(methylene))bis(azanetriyl))tetrakis(ethan-1-ol) di-trifluoroacetic acid salt]	118 to 122 °C	
Cc1c(COc2ccc(CN[C@@H](C)C(=O)O)cc2Br)cccc1-c1cccc(COc2ccc(CN[C@@H](C)C(=O)O)cc2Br)c1C (as salt: trifluoroacetic acid salt) [Example 15, (2S,2′S)-2,2′-((((((2,2′-Dimethyl-[1,1′-biphenyl]-3,3′-diyl)bis(methylene))bis(oxy))bis(3-bromo-4,1-phenylene))bis(methylene))bis(azanediyl))dipropionic acid di-trifluoroacetic acid salt]	243 to 247 °C	
